Measurements as given in patent US7432341B2, “Cytokine receptor modulators and method of modulating cytokine receptor activity” (Valo HSJ, Limited Partnership, priority 2002, dated 2008).
Non-standard residues stand in square brackets, D forms with d. Residues, ends and D or L forms follow the SMILES beside them. No end group written: not given here.

Columns and labels:
VEGFR2 (Flk-1) = assay: VEGF induced proliferation in microvascular endothelial cells, incorporated tritiated thymidine method; format: cell-based, porcine; settings: VEGF 2 ng/ml; peptides 10 μM (FIG. 2 panel A)
Description: (§1) FIG. 2 graphically illustrates in panel A results of proliferation assay in porcine microvascular endothelial cells in presence of VEGF (2 ng/ml) and peptides 2.1, 2.2, 2.3 (10 μM). In panel B are graphically illustrated dose-response of peptides in pulmonary arterial endothelial cells (PAEC) in presence of VEGF (2 ng/ml) and increasing doses of peptides. In panel C is graphically illustrated the effect of intravitreally injected peptides (10 μM [estimated final intraocular concentration]) of the present invention on neovascularization in rat retinas exposed to hyperoxic conditions;
To determine the efficient and non cytotoxic concentration of VEGF to use in the assay, a dose-response curve of VEGF was generated in two types of cells, namely microvascular endothelial cells and pulmonary artery endothelial cells (PAEC) that had been transfected with the Flk-1 gene. The proliferation was then measured in those two types of cells in the presence of peptides 2.1, 2.2 and 2.3 and of VEGF (2 ng/ml) pursuant to the incorporated tritiated thymidine method. The cells were preincubated at 37° C. with the different peptides at different concentrations. They were incubated with VEGF (2 ng/ml) for 24 hours. The cells were contacted with ^3H-Thymidine for 24 hours, washed and lysed. The radioactivity was measured with a scintillation counter.

VEGFR (Flk-1) = target: T1, VEGFR (Flk-1) (Rattus norvegicus, UniProt O08775); assay: Ischemic retinopathy model, neovascularization in rat retinas exposed to hyperoxic conditions; format: in vivo; settings: rat pups, 80% O2 then normoxia; peptides 10 μM final concentration in the vitreous body
T1 construct: from tissue; host or cells: rat pup retina (in vivo, intravitreal injection)
T1 sequence (O08775 20-1343): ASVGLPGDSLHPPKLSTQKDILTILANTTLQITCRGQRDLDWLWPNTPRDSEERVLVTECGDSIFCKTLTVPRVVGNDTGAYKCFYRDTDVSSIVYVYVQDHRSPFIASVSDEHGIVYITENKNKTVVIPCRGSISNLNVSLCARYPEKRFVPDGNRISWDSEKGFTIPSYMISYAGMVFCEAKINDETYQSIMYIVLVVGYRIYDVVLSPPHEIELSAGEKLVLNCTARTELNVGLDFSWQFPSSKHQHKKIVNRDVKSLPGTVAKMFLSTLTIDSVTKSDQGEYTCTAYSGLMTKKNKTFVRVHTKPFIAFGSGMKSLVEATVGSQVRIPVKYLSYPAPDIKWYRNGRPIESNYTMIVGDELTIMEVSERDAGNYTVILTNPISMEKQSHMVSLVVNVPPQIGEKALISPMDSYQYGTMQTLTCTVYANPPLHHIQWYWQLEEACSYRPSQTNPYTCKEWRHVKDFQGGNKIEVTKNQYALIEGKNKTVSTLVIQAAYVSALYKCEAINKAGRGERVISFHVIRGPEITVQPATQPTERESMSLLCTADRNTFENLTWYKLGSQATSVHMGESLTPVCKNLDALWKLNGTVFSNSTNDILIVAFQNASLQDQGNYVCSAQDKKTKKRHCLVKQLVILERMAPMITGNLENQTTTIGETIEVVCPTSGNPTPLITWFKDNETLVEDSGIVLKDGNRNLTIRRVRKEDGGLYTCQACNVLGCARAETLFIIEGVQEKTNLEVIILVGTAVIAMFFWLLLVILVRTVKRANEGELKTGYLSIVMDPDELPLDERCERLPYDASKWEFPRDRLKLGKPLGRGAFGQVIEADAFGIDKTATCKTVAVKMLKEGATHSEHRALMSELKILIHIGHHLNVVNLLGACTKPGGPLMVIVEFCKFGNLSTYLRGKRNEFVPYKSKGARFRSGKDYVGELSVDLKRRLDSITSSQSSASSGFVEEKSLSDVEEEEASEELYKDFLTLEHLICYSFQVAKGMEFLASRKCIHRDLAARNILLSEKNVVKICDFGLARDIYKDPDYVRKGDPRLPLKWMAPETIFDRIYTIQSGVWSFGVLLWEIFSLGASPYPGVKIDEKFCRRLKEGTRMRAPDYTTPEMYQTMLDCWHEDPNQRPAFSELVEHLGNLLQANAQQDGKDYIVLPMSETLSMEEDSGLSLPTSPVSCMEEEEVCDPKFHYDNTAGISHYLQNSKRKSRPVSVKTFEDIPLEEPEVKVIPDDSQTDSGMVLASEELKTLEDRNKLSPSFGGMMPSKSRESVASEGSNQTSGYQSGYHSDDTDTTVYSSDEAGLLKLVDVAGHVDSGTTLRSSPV
Description: as §1
The efficiency of the selected peptides was verified in vivo in a ischemic retinopathy model, a phenomena highly dependant on VEGF activation. Rat pups were exposed to 80% O2 followed by a period of normoxia (21% O2). The peptides were injected at a final concentration of 10 μM in the vitreous body. The retinas were then retrieved, colored with the ADPase method and mounted on slides. Photographs of the retinas were taken with a microscope linked to a computer and the vascular density was evaluated with the Image prosoftware.

IL-1R/IL-1RacP [1] = assay: Vasomotricity of piglet pial vessels, IL-1β induced vasodilatation; settings: IL-1β 75 ng/ml; U46619 10^−7M preconstriction; peptide 10^−10 to 10^−5 M; data not shown; read-out: IC50, prevention of vasodilation induced by IL-1β in piglet pial vessels
Description: In another experiment, vasomotricity variation of piglets pial vessels was studied to further evaluate the particular effect of cytokine receptor subfragments on the vasodilatator effect of IL-1β. Brains were dissected from Yorkshire piglets. Slices of brain exposing the pial vessels were pinned to a wax base of a 20 ml bath containing Krebs buffer (pH 7.4) equilibrated with 95% O2-5% CO2 and maintained at 37° C. Microvessels were visualized and recorded using a video camera mounted on a dissecting microscope. Vascular diameter was measured using a digital image analyzer and the images were recorded before and after topical application of constricting agent U46619 at 10^−7M. After stabilization of the vasomotricity, IL-1β was added until stabilization of vasodilatation. Peptides were then injected at different concentrations from 10^−10 to 10^−5M. Reversal of vasodilatation (i.e. vasoconstriction) was visualized and measured as previously mentioned. IL-1β induced vasodilatation in the microvasculature of the piglet brain was observed. […] The range of concentrations of the peptide administered was from 10^−10 to 10^−5 M.

IL-1R/IL-1RacP [2] = target: T2, IL-1R/IL-1RacP (Homo sapiens, UniProt Q9NPH3); assay: IL-1 induced proliferation in A549 carcinoma cells, tritiated thymidine method; format: cell-based; settings: IL-1 10 ng/ml or 1 ng/ml; peptides 10^−6 to 10^−4 M
T2 construct: endogenous in cells; host or cells: A549 carcinoma cells
T2 sequence (Q9NPH3 21-570): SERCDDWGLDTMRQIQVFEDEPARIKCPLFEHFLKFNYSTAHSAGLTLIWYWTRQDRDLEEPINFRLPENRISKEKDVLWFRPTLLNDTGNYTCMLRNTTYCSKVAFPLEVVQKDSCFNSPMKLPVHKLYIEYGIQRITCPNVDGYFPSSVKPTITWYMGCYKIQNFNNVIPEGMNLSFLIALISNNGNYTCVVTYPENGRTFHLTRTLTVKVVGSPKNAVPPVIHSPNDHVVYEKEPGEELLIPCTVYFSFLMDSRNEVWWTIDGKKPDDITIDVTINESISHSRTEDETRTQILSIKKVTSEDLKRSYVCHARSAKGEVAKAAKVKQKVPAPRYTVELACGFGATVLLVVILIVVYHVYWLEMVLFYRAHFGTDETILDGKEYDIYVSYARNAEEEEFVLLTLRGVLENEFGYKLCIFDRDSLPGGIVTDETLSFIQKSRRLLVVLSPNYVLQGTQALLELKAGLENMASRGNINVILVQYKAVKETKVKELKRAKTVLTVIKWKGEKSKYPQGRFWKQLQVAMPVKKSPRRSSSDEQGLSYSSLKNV
Description: FIG. 9 graphically illustrates results of proliferation assays in carcinome A549 cells in presence of IL-1 (10 ng/ml-Panel A) (1 ng/ml-Panel B) and various concentrations of the peptides API-101, API-103 and API-106;
The proliferation effect of IL-1 was measured in A549 carcinoma cells in the presence of peptides API101; API103 and API106 and of IL-1 (10 ng/ml-Panel A) and (1 ng/ml-Panel B) pursuant to the incorporated tritiated thymidine method. The cells were preincubated at 37° C. with the different peptides at different concentrations, namely 10^−6, 10^−5 and 10^−4 M. They were then incubated with IL-1 (10 ng/ml or 1 ng/ml) for 24 hours. The cells were then contacted with ^3H-Thymidine for 24 hours, washed and lysed. The radioactivity was then measured with a scintillation counter. The sequences of the peptides antagonists used are as follows: API-101 […], API-103 […]; and API-106 […]. They generally correspond to the subfragment peptides having sequences SEQ ID NO: 50, NO: 52 and NO: 53, respectively except where the subfragment peptide contained an isoleucine. In that case, this isoleucine was replaced by a conservative leucine in the synthesized peptide for economic reasons.

Row | IC50 (IL-1R/IL-1RacP [1]) [µM] | EC50 (IL-1R/IL-1RacP [2]) [µM] | Molecule | VEGF induced proliferation in microvascular endothelial cells (VEGFR2 (Flk-1)) | induced neovascularization in vivo (vascular density of retina) (VEGFR (Flk-1))
1 | – | – | CC[C@@H](C)[C@@H](NC(=O)[C@@H](CCC(=O)O)NC(=O)[C@@H](CC(C)C)NC(=O)[C@@H](CC(N)=O)NC(=O)[C@H](NC(=O)[C@@H](CCCCN)NC(=O)[C@@H](CCC(=O)O)NC(=O)[C@@H](CCC(N)=O)NC(=O)[C@@H](C)N)[C@H](C)O)C(=O)N[C@@H](C(=O)N[C@@H](C(=O)N[C@H](CC(C)C)C(=O)N[C@@H](C(=O)NCC(=O)O)C(C)C)[C@H](C)CC)[C@H](C)CC [2.1] (H-[dA][dQ][dE][dK][dT][dN][dL][dE][dI][dI][dI][dL][dV]G-OH; N-terminus and C-terminus assumed) | completely abrogated | –
2 | – | – | CC(C)C[C@@H](NC(=O)[C@@H](CCCNC(=N)N)NC(=O)[C@H](NC(=O)[C@@H](CCCNC(=N)N)NC(=O)[C@@H](CCC(=O)O)NC(=O)CNC(=O)[C@H](NC(=O)[C@H](NC(=O)[C@@H](C)NC(=O)[C@H](N)CCC(=O)O)[C@H](C)O)C(C)C)C(C)C)C(=O)O [2.2] (H-[dE][dA][dT][dV]G[dE][dR][dV][dR][dL]-OH; N-terminus and C-terminus assumed) | completely abrogated | most effective inhibitor of neovascularization
3 | 0.182 | 1 | APRYTVELA [API-101] | – | –
4 | – | 1 | MKLPVHKLY [API-103] | – | –
